In paper PMC12430443, “Discovery of Novel Benzamide-Based Sigma-1 Receptor Agonists with Enhanced Selectivity and Safety” (Molecules, 2025):
Converted amounts (≈) assume the structure as drawn. Read-outs that look alike come from different tables or passages of the source.

Columns and labels:
adrenergic α1b receptor = adrenergic α1b receptor (Homo sapiens, UniProt P35368); assay: Off-target panel, aequorin functional assay; format: cell-based; settings: 10 µM, duplicate; % inhibition of reference agonist activity
adrenergic α1b receptor, sequence (P35368 whole entry): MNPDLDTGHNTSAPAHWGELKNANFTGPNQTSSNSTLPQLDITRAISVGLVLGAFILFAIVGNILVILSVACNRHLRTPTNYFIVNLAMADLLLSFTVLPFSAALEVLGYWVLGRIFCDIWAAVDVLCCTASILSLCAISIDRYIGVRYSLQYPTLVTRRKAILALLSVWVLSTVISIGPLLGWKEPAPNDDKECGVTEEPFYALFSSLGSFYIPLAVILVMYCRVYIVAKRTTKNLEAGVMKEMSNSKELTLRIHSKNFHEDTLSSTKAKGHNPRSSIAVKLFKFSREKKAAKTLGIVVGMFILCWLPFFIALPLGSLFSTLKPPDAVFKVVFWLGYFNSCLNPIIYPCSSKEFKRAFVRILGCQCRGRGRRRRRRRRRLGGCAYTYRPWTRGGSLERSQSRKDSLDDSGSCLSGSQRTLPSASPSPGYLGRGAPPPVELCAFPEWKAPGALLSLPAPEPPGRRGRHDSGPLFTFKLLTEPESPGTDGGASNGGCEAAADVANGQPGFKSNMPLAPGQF
Protocol: (§1) Among the synthesized compounds, four derivatives were selected based on their affinity and selectivity profiles. […] The remaining compounds (2, 3, 6, and 7) were assessed for their agonist and antagonist activities across a panel of 58 receptors relevant to CNS disorders, including serotonin, adenosine, adrenergic, cannabinoid, dopamine, histamine, and muscarinic receptors. These assays were conducted at a concentration of 10 µM, in duplicate, utilizing aequorin [19], cAMP HTRF™ [20], and GTPγS binding assays, as detailed in Table 2. […] Specifically, compound 6 antagonized four receptors (5-HT2A, 5-HT2C, α1a, H1), while compound 7 was active against five receptors (5-HT2A, 5-HT3, α1a, H1, M1).
(§2) Rapidly, the tests were performed by Euroscreen (https://euroscreenfast.com/) with recombinant human G-coupled receptor-expressing cell lines using aequorin functional assays for serotonin 5-HT2A, 5-HT2B, 5-HT2C, 5-HT3, and 5-HT5A, adrenergic α1a and α1b, angiotensin AT1, cholesistokinin CCFK1, endothelin ETA, histamine H1, muscarinic M1 and M3, neurokinin NK1 and NK2, vasopressin V1a, and vasoactive intestinal peptide VPAC1 receptor analysis. Then, cAMP HTRF^TM assays were used to analyze serotonin 5-HT1A, 5-HT4E, 5-HT6, and 5-HT7, adenosine A1, A2A, and A3, adrenergic β1 and β2, cannabinoid CB1, dopamine D1, histamine H2, and neuropeptide Y NPY receptors. GTPγS^35 assays were used to analyze serotonin 5-HT1B, adrenergic α2a and α2b, dopamine D2, muscarinic M2 and M4, opioid δ, κ and µ, and somatostatine SST4 receptors.
(§3) Agonist and antagonist activities of the test compound are expressed as the percentage of the activity of the reference agonist at its EC100 concentration or the percentage of inhibition of the reference agonist activity at its EC80 concentration, respectively.
(§4) For the aequorin assays, different cell lines co-expressing the receptors were grown in specific culture media and incubated for 4 h with coelenterazine h. For agonist testing, cell suspensions were mixed with test or reference agonists in a 96-well plate. For antagonist testing, the reference agonist at its EC80 (final concentration) was injected to the mix the containing cells and the tested compound. The resulting emission of light was recorded using the Hamamatsu Functional Drug Screening System 6000 [19].

[1] = biological target: serotonin 5-HT2A receptor (Homo sapiens, UniProt P28223); assay: Off-target panel, aequorin functional assay; format: cell-based; settings: 10 µM, duplicate; % inhibition of reference agonist activity
serotonin 5-HT2A receptor, sequence (P28223 whole entry): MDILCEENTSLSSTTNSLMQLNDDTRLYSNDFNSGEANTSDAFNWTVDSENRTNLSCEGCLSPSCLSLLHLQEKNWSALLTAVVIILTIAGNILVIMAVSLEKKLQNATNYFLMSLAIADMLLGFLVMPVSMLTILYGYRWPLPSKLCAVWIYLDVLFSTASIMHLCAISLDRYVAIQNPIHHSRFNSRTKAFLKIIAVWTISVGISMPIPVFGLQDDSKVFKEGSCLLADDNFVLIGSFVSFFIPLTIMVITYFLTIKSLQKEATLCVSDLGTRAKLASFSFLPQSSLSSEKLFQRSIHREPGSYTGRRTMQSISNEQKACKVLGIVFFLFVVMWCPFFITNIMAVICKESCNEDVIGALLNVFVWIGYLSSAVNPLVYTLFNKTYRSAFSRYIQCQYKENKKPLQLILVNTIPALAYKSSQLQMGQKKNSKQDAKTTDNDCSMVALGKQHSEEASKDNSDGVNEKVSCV
Protocol: as §1, §2, §3, §4

serotonin 5-HT3 receptor = serotonin 5-HT3 receptor (Homo sapiens, UniProt P46098); assay: Off-target panel, aequorin functional assay; format: cell-based; settings: 10 µM, duplicate; % inhibition of reference agonist activity
serotonin 5-HT3 receptor, sequence (P46098 24-478): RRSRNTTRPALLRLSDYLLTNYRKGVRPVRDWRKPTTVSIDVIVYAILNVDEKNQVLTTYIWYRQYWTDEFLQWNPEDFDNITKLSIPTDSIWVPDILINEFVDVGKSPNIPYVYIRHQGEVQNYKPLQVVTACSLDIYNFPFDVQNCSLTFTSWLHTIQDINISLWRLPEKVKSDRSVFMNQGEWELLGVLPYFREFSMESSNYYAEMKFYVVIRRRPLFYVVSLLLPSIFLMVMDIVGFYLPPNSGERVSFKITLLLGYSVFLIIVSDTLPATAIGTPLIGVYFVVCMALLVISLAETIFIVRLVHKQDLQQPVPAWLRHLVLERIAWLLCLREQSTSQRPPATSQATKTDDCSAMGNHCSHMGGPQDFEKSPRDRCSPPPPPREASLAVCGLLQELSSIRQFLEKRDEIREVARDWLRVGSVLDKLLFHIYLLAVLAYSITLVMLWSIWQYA
Protocol: as §1, §2, §3, §4

adrenergic α1a receptor = adrenergic α1a receptor (Homo sapiens, UniProt P35348); assay: Off-target panel, aequorin functional assay; format: cell-based; settings: 10 µM, duplicate; % inhibition of reference agonist activity
adrenergic α1a receptor, sequence (P35348 whole entry): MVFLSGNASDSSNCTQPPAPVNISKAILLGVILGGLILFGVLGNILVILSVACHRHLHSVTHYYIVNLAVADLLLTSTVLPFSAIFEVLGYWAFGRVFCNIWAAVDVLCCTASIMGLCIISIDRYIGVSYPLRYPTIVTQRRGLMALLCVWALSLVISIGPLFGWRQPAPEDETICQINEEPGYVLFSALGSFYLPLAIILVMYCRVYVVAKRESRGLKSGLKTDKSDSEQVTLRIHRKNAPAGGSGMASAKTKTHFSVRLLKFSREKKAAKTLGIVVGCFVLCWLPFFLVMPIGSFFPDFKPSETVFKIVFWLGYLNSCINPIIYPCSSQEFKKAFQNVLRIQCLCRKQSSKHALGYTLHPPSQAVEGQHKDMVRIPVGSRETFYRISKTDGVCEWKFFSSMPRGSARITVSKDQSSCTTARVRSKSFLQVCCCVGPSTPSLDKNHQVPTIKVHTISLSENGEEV
Protocol: as §1, §2, §3, §4

[2] = Solubility, shake-flask method, HPLC-UV/VIS; format: physicochemical; settings: thermodynamic from solid, n = 2
Protocol: Solubility and stability remained unchanged in simulated gastric fluid (SGF) and simulated intestinal fluid (SIF), which mimic gastrointestinal digestion. Intestinal permeability was assessed using a two-chamber system with apical (A, pH 6.5) and basolateral (B, pH 7.4) compartments, representing the luminal and blood/mesenteric lymph sides of the gastrointestinal tract, respectively. […] The efflux ratios for both compounds ranged between 1 and 2, indicating improved permeability relative to the reference compound 1.
Standardized in vitro ADME experiments were performed by Eurofins Cerep (Poitiers, France). Solubility assays were performed in PBS at pH 7.4, but also in simulated gastric fluid (SGF) and intestinal fluid (SIF), through the classical shake-flask method described by Lipinski et al., using HPLC-UV/VIS technology. The results were expressed in µM. The compound was classically evaluated at 10 µM for all of the ADME analyses. Bidirectional permeability (apical A to basolateral B pH 6.5/7.4, and basolateral B to apical A pH 7.4/6.5) was assessed in the epithelial colorectal adenocarcinoma cell line (Caco-2 cell line). The results were expressed as ×10^−6 cm/s (Papp) and as % recovery. The efflux ratio, i.e., Papp (B→A)/Papp(A→B), was calculated. Plasma protein binding was analyzed by HPLC-MS/MS after 4 h of incubation at 37 °C, as described by Banker et al.. Concentration was evaluated by LC/MS-MS. CYP inhibition was performed in human liver microsomes as described in [28]. Analysis of the respective metabolites was performed by HPLC-MS/MS. Transporter inhibition analysis was also performed in overexpressing cell lines. Respective metabolites for each specific transporter substrate were analyzed by fluorometry or scintillation counting, and % inhibition of control values were calculated. P-glycoprotein transporter substrate assessment was performed by bidirectional permeability analysis (apical A to basolateral B pH 7.4/7.4, and basolateral B to apical A pH 7.4/7.4) in the Caco-2 cell line with and without verapamil, as described in [26]. The results were expressed as ×10^−6 cm/s (Papp) and as % recovery. The efflux ratio was calculated as Papp(B→A)/Papp(A→B). CYP450 induction was assessed in human hepatocytes by measuring the mRNA levels of seven CYP isoforms via qPCR, as described in [40]. The compound was tested at 1, 10, and 100 μM, and fold-induction values were compared with predefined cut-off thresholds for each isoform and hepatocyte lot.

adrenergic α2b receptor = adrenergic α2b receptor (Homo sapiens, UniProt P18089); assay: Off-target panel, GTPγS binding assay; format: biochemical; settings: 10 µM, duplicate; % inhibition of reference agonist activity
adrenergic α2b receptor, sequence (P18089 whole entry): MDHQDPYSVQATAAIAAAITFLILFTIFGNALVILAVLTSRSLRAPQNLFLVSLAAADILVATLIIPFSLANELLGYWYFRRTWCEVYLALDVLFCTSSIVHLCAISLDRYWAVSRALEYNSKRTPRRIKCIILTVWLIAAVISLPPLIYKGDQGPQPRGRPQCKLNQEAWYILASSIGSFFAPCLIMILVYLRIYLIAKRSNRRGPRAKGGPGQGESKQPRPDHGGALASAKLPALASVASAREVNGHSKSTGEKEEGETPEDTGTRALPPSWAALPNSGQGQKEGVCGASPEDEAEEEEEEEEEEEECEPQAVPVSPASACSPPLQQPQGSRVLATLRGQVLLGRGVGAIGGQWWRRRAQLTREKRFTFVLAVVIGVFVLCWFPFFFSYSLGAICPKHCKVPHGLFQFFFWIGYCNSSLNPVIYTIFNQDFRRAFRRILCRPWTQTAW
Protocol: as §1, with “M1). […]” for “M1).”
as §3
(§5) For the GTPγS scintillation proximity assay, optimized specific conditions were determined for each receptor. […] were estimated with a PerkinElmer TopCount reader.

adrenergic α2a receptor = adrenergic α2a receptor (Homo sapiens, UniProt P08913); assay: Off-target panel, GTPγS binding assay; format: biochemical; settings: 10 µM, duplicate; % inhibition of reference agonist activity
adrenergic α2a receptor, sequence (P08913 whole entry): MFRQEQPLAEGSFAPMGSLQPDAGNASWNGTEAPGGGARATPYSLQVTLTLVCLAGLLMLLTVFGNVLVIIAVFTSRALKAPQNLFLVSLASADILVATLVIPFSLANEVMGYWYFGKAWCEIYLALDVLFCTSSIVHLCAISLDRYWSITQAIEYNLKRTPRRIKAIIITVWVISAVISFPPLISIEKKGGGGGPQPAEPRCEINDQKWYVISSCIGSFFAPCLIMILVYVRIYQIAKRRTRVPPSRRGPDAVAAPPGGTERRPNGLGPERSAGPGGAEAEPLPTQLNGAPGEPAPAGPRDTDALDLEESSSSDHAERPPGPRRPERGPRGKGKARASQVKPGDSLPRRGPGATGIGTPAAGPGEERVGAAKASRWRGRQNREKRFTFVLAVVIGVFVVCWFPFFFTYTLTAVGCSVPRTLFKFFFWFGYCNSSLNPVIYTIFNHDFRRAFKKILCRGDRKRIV
Protocol: as §1, with “M1). […]” for “M1).”
as §3, §5

D4.4 = D4.4 (Homo sapiens, UniProt P21917); assay: Off-target panel of recombinant human receptors; format: cell-based; settings: 10 µM, duplicate; % inhibition of reference agonist activity
D4.4, sequence (P21917 whole entry): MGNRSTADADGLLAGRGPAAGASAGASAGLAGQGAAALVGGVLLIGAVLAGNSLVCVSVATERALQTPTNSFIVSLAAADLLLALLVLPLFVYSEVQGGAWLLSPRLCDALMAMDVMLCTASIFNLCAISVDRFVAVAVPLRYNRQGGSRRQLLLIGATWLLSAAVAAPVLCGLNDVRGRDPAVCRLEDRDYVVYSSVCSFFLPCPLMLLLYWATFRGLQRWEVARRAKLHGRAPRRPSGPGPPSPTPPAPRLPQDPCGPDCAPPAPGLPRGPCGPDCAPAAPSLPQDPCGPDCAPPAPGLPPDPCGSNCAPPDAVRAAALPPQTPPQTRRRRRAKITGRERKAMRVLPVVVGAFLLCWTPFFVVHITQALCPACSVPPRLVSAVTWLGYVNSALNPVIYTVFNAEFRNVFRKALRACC
Protocol: as §1, §3

histamine H1 receptor = histamine H1 receptor (Homo sapiens, UniProt P35367); assay: Off-target panel, aequorin functional assay; format: cell-based; settings: 10 µM
histamine H1 receptor, sequence (P35367 whole entry): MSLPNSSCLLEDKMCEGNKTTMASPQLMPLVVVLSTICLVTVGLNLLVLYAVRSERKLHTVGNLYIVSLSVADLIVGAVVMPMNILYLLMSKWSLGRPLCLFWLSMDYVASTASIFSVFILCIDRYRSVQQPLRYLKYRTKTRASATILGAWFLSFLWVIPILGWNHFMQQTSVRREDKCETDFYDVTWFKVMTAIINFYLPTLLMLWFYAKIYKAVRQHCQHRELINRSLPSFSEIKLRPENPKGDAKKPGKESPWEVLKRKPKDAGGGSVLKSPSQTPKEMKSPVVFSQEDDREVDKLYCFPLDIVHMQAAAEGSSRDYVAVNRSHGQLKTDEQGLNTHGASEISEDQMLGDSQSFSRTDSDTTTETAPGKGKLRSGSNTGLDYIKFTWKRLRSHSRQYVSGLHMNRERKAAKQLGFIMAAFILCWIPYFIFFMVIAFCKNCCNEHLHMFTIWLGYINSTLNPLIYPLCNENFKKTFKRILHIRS
Protocol: as §1, §2, §3, §4

[3] = aqueous buffer, PBS pH 7.4, read-out: Solubility PBSpH7.4
[4] = simulated gastric fluid (SGF), simulated gastric fluid, read-out: Solubility SGF
[5] = simulated intestinal fluid (SIF), fassgf or other biorelevant, simulated intestinal fluid, read-out: Solubility SIF

Row | SMILES | α1b [b] antagonist activity (adrenergic α1b receptor) [%] | 5-HT2A [b] antagonist activity [1] | 5-HT3 [b] antagonist activity (serotonin 5-HT3 receptor) [%] | α1a [b] antagonist activity (adrenergic α1a receptor) [%] | solubility [2, 3] [µM] | solubility [2, 4] [µM] | solubility [2, 5] [µM] | α2b [b] antagonist activity (adrenergic α2b receptor) [%] | α2a [b] antagonist activity (adrenergic α2a receptor) [%] | D4.4 [b] antagonist activity (D4.4) [%] | H1 antagonist activity (in words) (histamine H1 receptor)
1 | CN(CCC(=O)NCc1cccc(Cl)c1)Cc1ccccc1 [Compound 2, 3-(Benzylmethylamino)-N-(3-chlorobenzyl)propanamide] | 70 | 72% | 68 | 64 | 167 (≈ 52.9 µg/mL) | 186 (≈ 58.9 µg/mL) | 181 (≈ 57.3 µg/mL) | 59 | 61 | 64 | 
2 | CN(CCC(=O)NCc1ccc(C#N)cc1)Cc1ccccc1 [Compound 6, 3-(Benzylmethylamino)-N-(4-cyanobenzyl)propanamide] |  | antagonized |  |  | 190 (≈ 58.4 µg/mL) | 178 (≈ 54.7 µg/mL) | 190 (≈ 58.4 µg/mL) |  |  |  | antagonized
